In US20200199689A1, “Method for Predicting Effectiveness of Angiogenesis Inhibitor” (Eisai R&D Management Co., Ltd., priority 2011, published 2020):

Tested on: human melanoma cell line grafted mouse models
Assay: Anti-tumor effect of angiogenesis inhibitor on mouse model grafted with melanoma cell line
Assay type: in vivo, nude mouse
Details: 100 mg/kg/day orally, 7th day after initiation of administration
Experimental: The human melanoma cell lines used in Example 1 were respectively cultured in the mediums shown in the column of “Culture medium” (containing 10% FBS) of Table 6 until about 80% confluency was obtained (in an incubator under 5% carbon dioxide gas). After culturing, cells were collected by trypsin-EDTA treatment in accordance with a conventional method. The cells were suspended with a phosphate buffer or a matrigel solution (mixture of phosphate buffer and matrigel in a common ratio of 1:1) to prepare suspension solution of 1×10^8 cells/mL or 5×10^7 cells/mL. The cell suspension (0.1 mL) was subcutaneously grafted to the side of the body of each nude mouse. In this manner, human melanoma cell line grafted mouse models were prepared.
After grafting, from the time point when a tumor volume reached about 200 mm^3, a mesylate of 4-(3-chloro-4-(cyclopropylaminocarbonyl)aminophenoxy)-7-methoxy-6-quinolinecarboxamide (hereinafter referred to as E7080) (100 mg/kg/day) was orally administered. The major axis and minor axis of the tumor were measured everyday by Digimatic Caliper (Mitsutoyo). The tumor volume and specific tumor volume were calculated in accordance with the following formula and thereby the anti-tumor effect (ΔT/C) of an angiogenesis inhibitor on the mouse model was measured.
Tumor volume (TV)=tumor longest diameter (mm)×tumor short diameter^2 (mm^2)/2
Anti-tumor effect (ΔT/C)=(TV of medicinal drug administered group−TV before initiation of administration)/(TV of control group−TV before initiation of administration)×100
In FIG. 1, the same cell lines used in Example 1 were used.

SMILES: COc1cc2nccc(Oc3ccc(NC(=O)NC4CC4)c(Cl)c3)c2cc1C(N)=O [E7080, 4-(3-Chloro-4-(cyclopropylaminocarbonyl)aminophenoxy)-7-methoxy-6-quinolinecarboxamide]
- Anti-tumor effect (ΔT/C) (melanoma cells where BRAF has a mutation and PTEN has no mutation): 45%
- Anti-tumor effect (ΔT/C) (melanoma cells where both of BRAF and PTEN are wild type): 16%
- Anti-tumor effect (ΔT/C) (melanoma cells where both of BRAF and PTEN have a mutation or loss of expression): 23%
